Here are results for three compounds from US20080311037A1, “Compounds which bind PSMA and uses thereof” (priority 2005, published 2008).

The target in assay [1] is T1, PSMA (Homo sapiens, UniProt Q04609). Nature of the assay: Binding of 3H-ZJ24 to recombinant hPSMA, Scatchard analysis. On the set-up: Recombinant protein of the extracellular domain of PSMA can also exist in readily inter-convertible dimer-monomer forms. As to conditions: 50 mM Tris buffer pH 7.5, 30 min, 37° C. How it is done:
FIG. 2 is a graph showing binding to the monomeric and active dimeric form of soluble recombinant hPSMA of a ^3H (tritium) radiolabled (ZJ24), ^3H—(S)-2-[3-((R)-1-carboxy-2-methyl-sulfanyl-ethyl)-ureido]-pentanedioic acid or [^3H]MeCys-C(O)-Glu Parent PMSA ligand (6) maintains its specificity for PSMA by binding to recombinant hPSMA with a Kd of 2 nM based on Scatchard analysis. The binding assay was performed in 50 mM Tris buffer (pH 7.5). Briefly, 0.5 μg of recombinant PSMA was incubated with ^3H-ZJ24 in a total volume of 100 μL for 30 min at 37° C. The mixture was centrifuged through a 50K cutoff membrane. Then 50 μL of filtrate was added to 4 mL of cocktail and the radioactivity measured. […] After 60 min less than 10% of the compound found in kidney and plasma was degraded.
Target sequence in this assay (Q04609 44-750 limits assumed): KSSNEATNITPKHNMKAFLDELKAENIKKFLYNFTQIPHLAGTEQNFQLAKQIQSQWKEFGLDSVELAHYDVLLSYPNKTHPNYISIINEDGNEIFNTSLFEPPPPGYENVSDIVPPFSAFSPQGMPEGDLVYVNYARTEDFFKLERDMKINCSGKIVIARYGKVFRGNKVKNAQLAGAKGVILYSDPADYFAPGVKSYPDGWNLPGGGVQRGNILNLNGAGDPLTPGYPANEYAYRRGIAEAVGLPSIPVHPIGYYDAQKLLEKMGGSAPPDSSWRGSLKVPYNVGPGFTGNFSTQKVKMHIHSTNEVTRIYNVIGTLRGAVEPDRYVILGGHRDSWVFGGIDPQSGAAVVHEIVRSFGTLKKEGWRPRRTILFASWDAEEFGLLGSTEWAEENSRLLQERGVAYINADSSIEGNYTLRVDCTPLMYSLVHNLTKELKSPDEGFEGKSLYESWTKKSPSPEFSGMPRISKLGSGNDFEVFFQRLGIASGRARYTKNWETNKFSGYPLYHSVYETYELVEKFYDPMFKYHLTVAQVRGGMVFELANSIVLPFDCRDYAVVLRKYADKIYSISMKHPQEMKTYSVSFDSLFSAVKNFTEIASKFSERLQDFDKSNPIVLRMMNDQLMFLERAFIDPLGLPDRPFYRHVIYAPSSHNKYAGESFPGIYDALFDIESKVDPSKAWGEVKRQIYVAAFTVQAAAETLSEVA

The target in assay [2] is T1, PSMA. Nature of the assay: Inhibition of folate hydrolase activity of PSMA, PSMA positive membrane preparations, substrate MTXGlu2, HPLC. On the set-up: host or cells: PSMA positive membrane preparations. The format is biochemical. The protocol: (§1) Described herein are new compounds, which can activate RNase L in PSMA expressing cells. 2-5A was targeted for delivery to PSMA by linking it with a ligand to PSMA. We modified ZJ24, a low molecular weight ligand for PSMA, with 2-5A through a 4-(N-maleimidomethyl)cyclohexane-1-amidate linkage to generate RBI 1033. The inhibitory activity of RBI 1033 to the folate hydrolase activity of PSMA was measured. The PSMA positive membrane preparations were incubated with different concentrations of ZJ24, RBI 1033 and RBI 1032 (2-5A with linker only) together with the substrate methotrexate diglutamate (MTXGlu2) for 1 h. The amount of methotrexate and MTXGlu2 were then determined by HPLC. […] Binding studies were performed by incubating membranes with different concentrations of drugs in the presence of 12 nM of ^3H-ZJ24 for 30 min. […] These studies indicate that RBI 1033 has excellent binding properties to PSMA, which can enable it to serve as a vector for imaging or therapy.
Target sequence in this assay (Q04609 whole entry, the tested form may be a part): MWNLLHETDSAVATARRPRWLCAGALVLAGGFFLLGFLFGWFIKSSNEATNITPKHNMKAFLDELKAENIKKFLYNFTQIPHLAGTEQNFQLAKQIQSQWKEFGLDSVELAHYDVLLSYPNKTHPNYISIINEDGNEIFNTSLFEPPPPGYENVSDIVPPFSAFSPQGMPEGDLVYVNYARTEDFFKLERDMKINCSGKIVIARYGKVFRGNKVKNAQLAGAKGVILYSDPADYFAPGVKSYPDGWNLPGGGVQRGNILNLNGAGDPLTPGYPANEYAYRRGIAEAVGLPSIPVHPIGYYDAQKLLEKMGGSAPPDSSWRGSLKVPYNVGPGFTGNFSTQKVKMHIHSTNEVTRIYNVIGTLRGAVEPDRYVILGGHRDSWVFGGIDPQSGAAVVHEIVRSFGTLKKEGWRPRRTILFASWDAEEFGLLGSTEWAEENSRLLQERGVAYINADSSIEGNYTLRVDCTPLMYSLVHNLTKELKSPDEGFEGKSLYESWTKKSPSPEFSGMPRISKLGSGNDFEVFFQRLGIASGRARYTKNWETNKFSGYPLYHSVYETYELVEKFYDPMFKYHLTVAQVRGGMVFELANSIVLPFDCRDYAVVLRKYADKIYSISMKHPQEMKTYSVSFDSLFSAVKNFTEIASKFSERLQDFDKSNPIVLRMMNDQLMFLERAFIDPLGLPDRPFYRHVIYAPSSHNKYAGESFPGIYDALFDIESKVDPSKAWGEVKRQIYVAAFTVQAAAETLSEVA

The target of assay [3] is T1, PSMA. In words: Inhibition of 3H-ZJ24 binding to cell membranes. Also on record: host or cells: PSMA positive membrane preparations. How it is done:
as §1
Target sequence in this assay (Q04609 whole entry, the tested form may be a part): as above

Assay [4] concerns the target T1, PSMA. Nature of the assay: PSMA activity assay, hydrolysis of polyglutamate substrate MTXGlu2. It is filed as biochemical. On the set-up: Recombinant protein of the extracellular domain of PSMA can also exist in readily inter-convertible dimer-monomer forms. As to conditions: 5 ng recombinant PSMA, MTXGlu2 5 nMol, 37° C, 1 h; read-out: EC50 for inhibition of PSMA activity. How it is done: The activity assay determines the ability of hPSMA to cleave/hydrolyze a polyglutamte substrate under the presence of a ligand at different concentrations. Briefly, recombinant PSMA (5 ng) was incubated with ZJ24 or disclosed 2-5A ligand. After 30 min the polyglutamate substrate MTXGlu2 (5 nMol) was added and the mixture was incubated at 37° C. for 1 h. The reaction was stopped by the addition of 100 μL of 50 mM Na2HPO4. The amount of MTX formed was analyzed using a Thermo Hypersil PRISM RP column (50×4.6 mm, flow rate 1.0 mL/min) at 313 nm.
Target sequence in this assay (Q04609 44-750 limits assumed): as the sequence (Q04609 44-750 limits assumed) above

Assay [5] concerns the target T2, active dimeric form of soluble recombinant hPSMA (Homo sapiens, UniProt Q04609).
T2 construct: Recombinant protein of the extracellular domain of PSMA can also exist in readily inter-convertible dimer-monomer forms
In words: Competition binding assay with 3H-ZJ24 on recombinant PSMA. As to conditions: 0.5 μg recombinant PSMA, 12 nM 3H-ZJ24, 30 min, 37° C. How it is done:
Binding and activity of the disclosed 2-5A ligand towards the active dimeric form of soluble recombinant hPSMA was compared with methylated parent ligand Cys-C(O)-Glu ZJ24. The binding assay examines the ability of a novel compound to compete for binding with radio-labeled ZJ24. Different final concentrations of the inhibitor can be incubated in the presence of ZJ24 and the concentration required to inhibit 50% of binding is determined (the EC50). Briefly, 0.5 μg of recombinant PSMA was incubated with the ligand to be tested at different concentrations and 12 nM of ^3H-ZJ24 in a total volume of 100 μL for 30 min at 37° C. The mixture was centrifuged through a 50 kDa cut-off membrane. Finally, 4 mL of biodegradable counting cocktail Bio-Safe II was added, and radioactivity was counted.

pEC50, pIC50, pKd: −log10 of the molar value.

T2 sequence (Q04609 44-750 limits assumed): as above

For orientation: pKd means −log10 of the Kd, conventionally taken in molar units. `O=C(O)CCC(NC(=O)NC(CS)C(=O)O)C(=O)O` (stereo not shown) [Parent PMSA ligand (6)]: the pKd on PSMA [1] was 8.70.
With `Nc1ncnc2c1ncn2[C@@H]1O[C@H](COP(O)(O)=S)[C@@H](O)[C@H]1OP(O)(=S)OC[C@H]1O[C@@H](n2cnc3c(N)ncnc32)[C@H](OP(O)(=S)OC[C@H]2O[C@@H](n3cnc4c(N)ncnc43)[C@H](OP(O)(=S)OCCCNC(=O)C3CCC(CN4C(=O)CC(SC[C@H](NC(=O)N[C@@H](CCC(=O)O)C(=O)O)C(=O)O)C4=O)CC3)[C@@H]2O)[C@@H]1O` (stereo partly shown) [RBI 1033], on PSMA [2] (compared to ZJ24), the “times more potent than ZJ24 as folate hydrolase inhibitor” value is reported as “more than 10 times”. Further, on PSMA [3] (compared to ZJ24), the “times higher affinity to PSMA than ZJ24” value is reported as “more than 10 times”.
For orientation: pIC50 means the negative decadic logarithm of the IC50, by convention in mol/L. Usually pEC50 stands for the negative decadic logarithm of the EC50, by convention in mol/L. For the compound “(S)-2-[3-((R)-1-carboxy-2-methyl-sulfanyl-ethyl)-ureido]-pentanedioic acid [ZJ24]”, the negative-log IC50 (pIC50) was 7.27 at PSMA [2] (PSMA positive membrane preparations, MTXGlu2 substrate, 1 h, read-out: IC50 as folate hydrolase inhibitor) and 7.82 on PSMA [3] (12 nM 3H-ZJ24, 30 min, read-out: IC50 for inhibition of binding of 3H-ZJ24 to the cell membrane). In addition, the negative-log EC50 (pEC50) on PSMA [4] was 7.25; in assay [5] it was 7.82.
